Test results published in patent publication US12509734B2, “Systems and methods to assess microbiomes and treatments thereof” (priority 2013, dated 2025).

System: vaginal microbiota
Assay: 16S-C&S (broad-spectrum clone and sequence) with and without LB-blocking of acute BV and post-tinidazole lavages (Tables 3C, 3D)
Assay type: in vivo, human
Excerpt: Amplicon cloning. Amplicon cloning. Broad-spectrum PCR targets were amplified for varying cycle numbers, typically Cp plus 1 or 2 cycles to achieve a “just visible” product on an agarose ethidium-bromide gel. Amplicons derived from PB primers were sequenced directly with the rationale that any species present at 5-10× others amplified by the same PB primer would generate a single, readable sequence; amplicons from PB primers that were unreadable as uncloned amplicons were cloned after nested PCR. They were amplified to maximum fluorescence or maximum cycles for that primer. Products were cleaned by ultrafiltration with the MONTAGE™ PCR kit UFC7PCR50 (Millipore) or QIAQUICK® PCR purification kit (QIAGEN®). One to three microliters of the 20 μl purified product was ligated into pGEM-T Easy vector using the PGEM-T™ Easy Ligation Kit (Promega) according to the manufacturer's specifications. The ligation reaction was carried out for from 4 hours to overnight at 4° C. Forty microliters of E. coli cells (strain XL1-BLUE®, Stratagene) were electroporated using a BioRad GenePulser and Pulse Controller (set at 2.5 kV, 25 μFD capacitance, and 200 ohms resistance) with 1 μl of the ligation, allowed to recover in LB broth 1 h at 37° C., then plated onto LB agar plus 100 μg/ml ampicillin with 0.1 mM IPTG and 20 μg/ml X-gal and grown overnight at 37° C. White colonies and a few blue control colonies were picked from the plates into 100 μl of 15% glycerol or TE, incubated at 94° C. for 5 m; 2 μl of this was amplified in 8 μl of reaction buffer as described, using primers that flank the cloning site in the vector (pUC-F […] (SEQ ID NO: 88), pUC-R […] (SEQ ID NO: 89); 95° C. (1 m), [95° C. (30 s), 45° C. (30 s), 72° C. (30 s)] for 40 cycles, 72° C. (5 m). Extension times for cloned amplicons from PB primers were adjusted as appropriate for each amplicon size according to Tables 3A-3D. An aliquot of each amplicon was tested by agarose gel electrophoresis.
Sequencing and analysis. Full length amplicons (5 μl) were enzymatically cleaned using a 5 μl solution of 0.1 units of NTPhos thermolabile phosphatase and 1 unit of Exonuclease I (Epicentre Biotechnologies), in 20 mM Tris pH 8.3, 50 mM KCl and 10 mM MgCl2 (1×PCR reaction buffer, Invitrogen), incubated at 37° C. for 15 m, then inactivated at 80° C. for 15 m, and used for sequencing. Mini-libraries were constructed from amplicons with co-dominant species (which generate mixed template reads when uncloned); 17 mini-libraries each averaging 11 sequences were sequenced. Enzymatically cleaned amplicons were sequenced with the same primers used for amplification, or T7 for cloned amplicons (Functional Biosciences, Inc.). Sequences were uploaded to Ribosomal Database Project II using the Pipeline function in MyRDP for trimming, quality scoring, alignment, and identification. Only base calls with PHRED quality scores (Q) above 20 were considered. A small number of high quality sequences were rejected by the website as non-ribosomal and were not considered further in this analysis. Aligned sequences, their closest hits via SeqMatch, and manually selected reference species, were downloaded from myRDP, manually trimmed to common 5′ and 3′ ends, and analyzed with Molecular Evolutionary Genetics Analysis (MEGA4 and MEGA5) software. From this, trees were constructed using the bootstrapped Neighbor-Joining method or the Maximum Composite Likelihood method, and used for species identification.
Compositions determined by 16S-C&S were simply tallies of sequences in each taxa, defined here as those with >97% identity. These tallies were adjusted in libraries from LB-blocked PCR with a correction factor. To determine this factor, the titers of Gardnerella and LB were independently determined with and without blocking by PB-qPCR. Their ratio in the unblocked sample (7×10^−6) was increased in the blocked sample to 0.09, indicating an enrichment of 0.09/7×10^−6=12,600. […]

[1] = post tinidazole lavage, 16S-C&S, Lactobacillaceae clones
[2] = post tinidazole lavage, 16S-C&S, target Bacteroidaceae/uc Prevotellaceae

## CCS(=O)(=O)CCn1c([N+](=O)[O-])cnc1C [tinidazole]
FIG. 3, B2, LB-blocked
  non-LB share of isolates in post-tinidazole sample: 0.003%
[1]
  ID Clones: L. iners: L. iners 83%, L.
  ID Clones: L. jensenii: jensenii 17%,
Post tinidazole lavage, 16S-C&S, target Actinobacteria: Actinobacteridae
  Cells/sample: 1.3E+06 Cells/sample
Post tinidazole lavage, 16S-C&S, target Alpha-Proteobacteria
  Cells/sample: 3.4E+04 Cells/sample
[2]
  Cells/sample: 3.4E+04 Cells/sample
  ID Clones: Bacteroides sp.
Post tinidazole lavage, 16S-C&S, target Beta-Proteobacteria
  Cells/sample: 3.4E+04 Cells/sample
Post tinidazole lavage, 16S-C&S, target Broad-spectrum
  Cells/sample: 8.4E+09 Cells/sample
Post tinidazole lavage, 16S-C&S, target Clostridiales Incertae Sedis XI
  Cells/sample: 0 Cells/sample
Post tinidazole lavage, 16S-C&S, target Clostridiales Incertae Sedis XII
  Cells/sample: 0 Cells/sample
Post tinidazole lavage, 16S-C&S, target Coriobacteridae
  Cells/sample: 0 Cells/sample
Post tinidazole lavage, 16S-C&S, target Cross-family Clostridia
  Cells/sample: 0 Cells/sample
Post tinidazole lavage, 16S-C&S, target Enterobacteriales, Pasteurellales, Pseudomonadaceae
  Cells/sample: 3.4E+05 Cells/sample
Post tinidazole lavage, 16S-C&S, target Epsilon-Proteobacteria
  Cells/sample: 3.4E+04 Cells/sample
Post tinidazole lavage, 16S-C&S, target Firmicute: Lactobacillaceae
  Cells/sample: 8.4E+09 Cells/sample
Post tinidazole lavage, 16S-C&S, target Fusobacterium
  Cells/sample: 0 Cells/sample
Post tinidazole lavage, 16S-C&S, target Lachnospiracea uc & incertae sedis Clostridium IVa
  Cells/sample: 0 Cells/sample
Post tinidazole lavage, 16S-C&S, target Megasphaera/Dialister/Veillonella
  Cells/sample: 0 Cells/sample
Post tinidazole lavage, 16S-C&S, target Mobiluncus
  Cells/sample: 0 Cells/sample
Post tinidazole lavage, 16S-C&S, target Mycoplasmatales
  Cells/sample: 0 Cells/sample
Post tinidazole lavage, 16S-C&S, target Peptostreptococcaceae
  Cells/sample: 0 Cells/sample
Post tinidazole lavage, 16S-C&S, target Staphylococcus
  Cells/sample: 0 Cells/sample
Post tinidazole lavage, 16S-C&S, target Streptococcus
  Cells/sample: 0 Cells/sample
Post tinidazole lavage, 16S-C&S, target uc Clostridiales (BVAB283 subset)
  Cells/sample: 0 Cells/sample
